Source: ChEMBL document CHEMBL5360519, “Chemical similarities and differences among inhibitors of nitric oxide synthase, arginase and dimethylarginine dimethylaminohydrolase-1: Implications for the design of novel enzyme inhibitors modulating the nitric oxide pathway” (Bioorg Med Chem, 2022)

How the values were obtained:
Nitric oxide synthase 1 [1] = biological target: T1, Nitric oxide synthase 1 (Homo sapiens, UniProt P29475); assay: Inhibition of nNOS in human DLD-1 cells assessed as reduction of L-[14C]arginine to L-[14C]citrulline conversion; format: cell-based
Nitric oxide synthase 3 [2] = biological target: T2, Nitric oxide synthase 3 (Homo sapiens, UniProt P29474); assay: Inhibition of eNOS in human DLD-1 cells assessed as reduction of L-[14C]arginine to L-[14C]citrulline conversion; format: cell-based
T2 sequence (P29474 whole entry): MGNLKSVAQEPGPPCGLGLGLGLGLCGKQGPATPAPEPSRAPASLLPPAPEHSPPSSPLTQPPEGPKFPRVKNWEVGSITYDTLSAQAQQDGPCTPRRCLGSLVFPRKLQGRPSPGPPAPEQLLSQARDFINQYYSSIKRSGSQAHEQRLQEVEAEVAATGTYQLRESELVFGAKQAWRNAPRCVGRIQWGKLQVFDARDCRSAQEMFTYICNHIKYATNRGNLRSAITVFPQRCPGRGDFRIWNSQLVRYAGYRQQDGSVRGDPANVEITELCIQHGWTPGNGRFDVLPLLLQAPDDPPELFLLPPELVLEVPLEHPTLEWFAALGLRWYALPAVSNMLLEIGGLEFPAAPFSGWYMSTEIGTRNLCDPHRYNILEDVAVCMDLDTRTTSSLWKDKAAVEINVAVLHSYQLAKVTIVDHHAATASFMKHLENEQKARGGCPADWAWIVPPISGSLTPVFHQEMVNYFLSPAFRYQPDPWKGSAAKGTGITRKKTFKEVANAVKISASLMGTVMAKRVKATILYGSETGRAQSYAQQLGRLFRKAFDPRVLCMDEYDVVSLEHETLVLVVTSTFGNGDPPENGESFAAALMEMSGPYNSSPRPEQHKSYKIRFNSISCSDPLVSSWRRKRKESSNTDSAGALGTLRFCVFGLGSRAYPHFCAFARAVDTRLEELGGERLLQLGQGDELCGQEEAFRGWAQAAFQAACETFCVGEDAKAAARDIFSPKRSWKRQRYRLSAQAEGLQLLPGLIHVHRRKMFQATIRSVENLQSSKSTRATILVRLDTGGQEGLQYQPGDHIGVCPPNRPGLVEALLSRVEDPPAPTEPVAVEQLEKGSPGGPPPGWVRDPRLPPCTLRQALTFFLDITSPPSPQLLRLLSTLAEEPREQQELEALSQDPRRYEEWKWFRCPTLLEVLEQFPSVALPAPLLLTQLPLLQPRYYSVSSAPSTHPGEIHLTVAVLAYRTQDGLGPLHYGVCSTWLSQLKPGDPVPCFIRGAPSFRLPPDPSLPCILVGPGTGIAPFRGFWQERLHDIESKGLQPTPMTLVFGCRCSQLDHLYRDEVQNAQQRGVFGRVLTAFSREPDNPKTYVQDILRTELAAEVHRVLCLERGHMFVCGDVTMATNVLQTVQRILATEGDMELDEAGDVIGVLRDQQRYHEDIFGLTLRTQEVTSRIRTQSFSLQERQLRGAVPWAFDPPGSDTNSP

[3] = biological target: T3, Nitric oxide synthase, inducible (Homo sapiens, UniProt P35228); assay: Inhibition of iNOS in human DLD-1 cells assessed as reduction of L-[14C]arginine to L-[14C]citrulline conversion; format: cell-based
[4] = Inhibition of bovine nNOS; parameters: species or system Bos taurus
Nitric oxide synthase 3 [5] = biological target: T4, Nitric oxide synthase 3 (Bos taurus, UniProt P29473); assay: Inhibition of bovine eNOS
T4 sequence (P29473 whole entry): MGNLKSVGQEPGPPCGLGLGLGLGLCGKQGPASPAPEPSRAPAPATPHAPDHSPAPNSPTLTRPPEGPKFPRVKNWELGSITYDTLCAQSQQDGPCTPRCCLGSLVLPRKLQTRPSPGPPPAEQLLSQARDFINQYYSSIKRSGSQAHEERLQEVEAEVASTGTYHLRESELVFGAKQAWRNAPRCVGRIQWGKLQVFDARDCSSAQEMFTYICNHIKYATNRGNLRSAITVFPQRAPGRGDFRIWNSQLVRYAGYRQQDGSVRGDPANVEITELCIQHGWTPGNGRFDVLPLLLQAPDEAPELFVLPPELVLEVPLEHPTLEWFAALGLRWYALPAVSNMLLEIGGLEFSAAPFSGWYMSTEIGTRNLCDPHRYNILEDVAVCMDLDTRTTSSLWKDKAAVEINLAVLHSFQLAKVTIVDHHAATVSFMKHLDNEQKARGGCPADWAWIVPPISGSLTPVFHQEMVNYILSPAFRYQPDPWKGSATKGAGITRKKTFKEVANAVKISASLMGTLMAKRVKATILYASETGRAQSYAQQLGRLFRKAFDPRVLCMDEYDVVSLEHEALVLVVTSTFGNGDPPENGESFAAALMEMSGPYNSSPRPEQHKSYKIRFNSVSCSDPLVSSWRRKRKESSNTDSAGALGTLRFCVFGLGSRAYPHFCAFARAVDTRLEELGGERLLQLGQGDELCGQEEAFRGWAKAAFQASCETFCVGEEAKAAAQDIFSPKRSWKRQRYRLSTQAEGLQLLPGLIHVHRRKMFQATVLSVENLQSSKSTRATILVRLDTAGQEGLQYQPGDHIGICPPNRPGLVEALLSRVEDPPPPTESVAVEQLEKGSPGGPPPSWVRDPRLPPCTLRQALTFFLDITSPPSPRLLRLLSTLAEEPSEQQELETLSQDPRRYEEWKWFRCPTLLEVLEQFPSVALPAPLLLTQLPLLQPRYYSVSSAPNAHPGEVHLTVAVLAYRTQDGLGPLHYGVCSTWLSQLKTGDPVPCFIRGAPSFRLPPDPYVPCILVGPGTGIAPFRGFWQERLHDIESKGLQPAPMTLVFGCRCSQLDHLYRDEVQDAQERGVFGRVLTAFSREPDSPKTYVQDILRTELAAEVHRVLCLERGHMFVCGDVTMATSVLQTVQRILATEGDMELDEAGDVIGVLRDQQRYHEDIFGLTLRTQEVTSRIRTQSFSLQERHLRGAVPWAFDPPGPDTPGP

[6] = biological target: T5, Nitric oxide synthase, inducible (Mus musculus, UniProt P29477); assay: Inhibition of mouse iNOS
T5 sequence (P29477 whole entry): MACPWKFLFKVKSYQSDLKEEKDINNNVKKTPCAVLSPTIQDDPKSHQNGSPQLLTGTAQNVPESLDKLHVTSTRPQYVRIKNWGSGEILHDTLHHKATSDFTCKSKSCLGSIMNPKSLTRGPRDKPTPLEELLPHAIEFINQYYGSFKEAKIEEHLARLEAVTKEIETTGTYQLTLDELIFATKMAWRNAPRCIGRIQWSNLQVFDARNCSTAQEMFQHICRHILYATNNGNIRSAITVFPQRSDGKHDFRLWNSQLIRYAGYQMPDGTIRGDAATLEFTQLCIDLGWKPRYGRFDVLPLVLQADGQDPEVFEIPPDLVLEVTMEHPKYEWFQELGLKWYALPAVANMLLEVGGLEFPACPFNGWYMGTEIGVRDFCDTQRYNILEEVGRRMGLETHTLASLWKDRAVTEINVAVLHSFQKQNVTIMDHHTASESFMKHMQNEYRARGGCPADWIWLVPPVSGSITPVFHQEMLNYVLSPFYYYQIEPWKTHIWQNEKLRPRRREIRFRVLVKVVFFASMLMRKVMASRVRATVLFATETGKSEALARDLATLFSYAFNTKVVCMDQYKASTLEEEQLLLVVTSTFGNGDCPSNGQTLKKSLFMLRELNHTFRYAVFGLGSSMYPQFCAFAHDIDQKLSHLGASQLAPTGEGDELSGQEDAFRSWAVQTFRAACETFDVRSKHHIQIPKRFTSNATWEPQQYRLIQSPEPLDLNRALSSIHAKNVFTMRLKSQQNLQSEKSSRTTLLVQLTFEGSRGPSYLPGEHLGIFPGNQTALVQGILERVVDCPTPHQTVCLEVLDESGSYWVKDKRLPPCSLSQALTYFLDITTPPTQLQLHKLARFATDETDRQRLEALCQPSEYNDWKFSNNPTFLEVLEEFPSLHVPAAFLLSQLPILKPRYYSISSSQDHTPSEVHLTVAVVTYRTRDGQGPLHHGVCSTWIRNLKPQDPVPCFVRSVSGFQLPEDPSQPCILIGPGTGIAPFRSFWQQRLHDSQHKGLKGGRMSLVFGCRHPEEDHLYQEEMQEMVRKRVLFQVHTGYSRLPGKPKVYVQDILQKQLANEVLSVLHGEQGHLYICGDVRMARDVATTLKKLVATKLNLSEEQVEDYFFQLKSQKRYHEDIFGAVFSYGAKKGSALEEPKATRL

[7] = biological target: T5, Nitric oxide synthase, inducible; assay: Inhibition of iNOS in mouse RAW264.7 cells assessed as inhibition constant in presence of NADPH; format: cell-based
[8] = biological target: T6, N(G),N(G)-dimethylarginine dimethylaminohydrolase 1 (Homo sapiens, UniProt O94760); assay: Inhibition of recombinant human DDAH1 expressed in HEK293 cells using ADMA as substrate assessed as inhibition constant preincubated for 5 mins
[9] = biological target: T6, N(G),N(G)-dimethylarginine dimethylaminohydrolase 1; assay: Inhibition of recombinant human DDAH1 expressed in HEK293 cells using ADMA as substrate preincubated for 5 mins
Nitric oxide synthase 1 [10] = biological target: T1, Nitric oxide synthase 1; assay: Inhibition of human nNOS
[11] = biological target: T3, Nitric oxide synthase, inducible; assay: Inhibition of human iNOS
Homo sapiens = organism: Homo sapiens; assay: Selectivity index, ratio of IC50 for human eNOS to IC50 for human iNOS
Nitric oxide synthase 3 [12] = biological target: T2, Nitric oxide synthase 3
Nitric oxide synthase 1 [13] = biological target: Nitric oxide synthase 1 (Rattus norvegicus, UniProt P29476); assay: Inhibition of rat nNOS transfected in HEK293 cells assessed as inhibition constant in presence of NADPH by spectrophotometric analysis; format: cell-based
Arginase-1 [14] = biological target: T7, Arginase-1 (Rattus norvegicus, UniProt P07824); assay: Inhibition of Sprague-Dawley rat liver arginase 1; format: tissue-based
T7 sequence (P07824 whole entry): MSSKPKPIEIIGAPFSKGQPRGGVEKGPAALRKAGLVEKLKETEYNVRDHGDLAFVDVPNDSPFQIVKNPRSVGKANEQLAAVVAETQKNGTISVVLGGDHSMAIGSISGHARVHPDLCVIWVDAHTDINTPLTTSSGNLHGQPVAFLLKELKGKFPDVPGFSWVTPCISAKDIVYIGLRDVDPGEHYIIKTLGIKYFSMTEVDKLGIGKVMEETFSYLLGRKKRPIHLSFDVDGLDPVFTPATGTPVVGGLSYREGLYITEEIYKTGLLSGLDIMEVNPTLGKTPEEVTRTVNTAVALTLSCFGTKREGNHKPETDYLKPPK

Arginase-1 [15] = biological target: T7, Arginase-1; assay: Inhibition of Sprague-Dawley rat liver arginase 1 assessed as inhibition constant; format: tissue-based

T1 sequence (P29475 whole entry): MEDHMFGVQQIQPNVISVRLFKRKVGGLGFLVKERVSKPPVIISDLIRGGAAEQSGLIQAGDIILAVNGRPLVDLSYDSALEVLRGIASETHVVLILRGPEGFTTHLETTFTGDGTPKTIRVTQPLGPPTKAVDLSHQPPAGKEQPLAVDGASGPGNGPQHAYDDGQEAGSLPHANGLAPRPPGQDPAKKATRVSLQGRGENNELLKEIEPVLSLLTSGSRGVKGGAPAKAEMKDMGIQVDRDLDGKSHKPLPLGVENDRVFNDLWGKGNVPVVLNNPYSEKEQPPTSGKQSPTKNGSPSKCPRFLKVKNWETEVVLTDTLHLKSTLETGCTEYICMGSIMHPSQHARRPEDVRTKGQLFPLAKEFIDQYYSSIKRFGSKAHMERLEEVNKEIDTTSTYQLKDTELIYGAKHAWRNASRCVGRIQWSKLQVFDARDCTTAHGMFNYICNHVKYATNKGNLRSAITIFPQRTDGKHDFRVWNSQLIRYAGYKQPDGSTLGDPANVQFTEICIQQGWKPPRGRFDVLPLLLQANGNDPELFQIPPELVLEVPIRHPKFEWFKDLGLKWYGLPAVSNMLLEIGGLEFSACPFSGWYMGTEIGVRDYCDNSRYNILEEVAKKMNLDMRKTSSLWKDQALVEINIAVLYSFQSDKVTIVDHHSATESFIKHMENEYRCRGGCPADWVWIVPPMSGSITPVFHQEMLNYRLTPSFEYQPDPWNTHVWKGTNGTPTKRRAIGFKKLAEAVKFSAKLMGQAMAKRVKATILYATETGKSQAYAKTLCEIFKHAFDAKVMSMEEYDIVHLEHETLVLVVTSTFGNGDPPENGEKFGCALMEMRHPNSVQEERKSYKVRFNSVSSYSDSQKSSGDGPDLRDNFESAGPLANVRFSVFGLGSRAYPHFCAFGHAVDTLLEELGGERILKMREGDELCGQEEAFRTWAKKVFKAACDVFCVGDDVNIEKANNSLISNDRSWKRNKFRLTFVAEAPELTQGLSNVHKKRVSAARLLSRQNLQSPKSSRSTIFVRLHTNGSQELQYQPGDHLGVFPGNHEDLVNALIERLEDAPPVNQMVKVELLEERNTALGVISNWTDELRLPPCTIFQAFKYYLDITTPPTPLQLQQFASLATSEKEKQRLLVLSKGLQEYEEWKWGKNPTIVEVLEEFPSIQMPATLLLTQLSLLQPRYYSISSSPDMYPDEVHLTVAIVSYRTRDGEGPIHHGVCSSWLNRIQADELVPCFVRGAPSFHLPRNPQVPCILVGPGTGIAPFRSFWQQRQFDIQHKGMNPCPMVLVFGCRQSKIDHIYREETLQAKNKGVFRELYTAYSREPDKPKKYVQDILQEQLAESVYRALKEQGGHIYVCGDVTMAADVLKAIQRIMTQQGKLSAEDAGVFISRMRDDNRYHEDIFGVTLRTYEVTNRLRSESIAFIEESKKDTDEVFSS
T3 sequence (P35228 whole entry): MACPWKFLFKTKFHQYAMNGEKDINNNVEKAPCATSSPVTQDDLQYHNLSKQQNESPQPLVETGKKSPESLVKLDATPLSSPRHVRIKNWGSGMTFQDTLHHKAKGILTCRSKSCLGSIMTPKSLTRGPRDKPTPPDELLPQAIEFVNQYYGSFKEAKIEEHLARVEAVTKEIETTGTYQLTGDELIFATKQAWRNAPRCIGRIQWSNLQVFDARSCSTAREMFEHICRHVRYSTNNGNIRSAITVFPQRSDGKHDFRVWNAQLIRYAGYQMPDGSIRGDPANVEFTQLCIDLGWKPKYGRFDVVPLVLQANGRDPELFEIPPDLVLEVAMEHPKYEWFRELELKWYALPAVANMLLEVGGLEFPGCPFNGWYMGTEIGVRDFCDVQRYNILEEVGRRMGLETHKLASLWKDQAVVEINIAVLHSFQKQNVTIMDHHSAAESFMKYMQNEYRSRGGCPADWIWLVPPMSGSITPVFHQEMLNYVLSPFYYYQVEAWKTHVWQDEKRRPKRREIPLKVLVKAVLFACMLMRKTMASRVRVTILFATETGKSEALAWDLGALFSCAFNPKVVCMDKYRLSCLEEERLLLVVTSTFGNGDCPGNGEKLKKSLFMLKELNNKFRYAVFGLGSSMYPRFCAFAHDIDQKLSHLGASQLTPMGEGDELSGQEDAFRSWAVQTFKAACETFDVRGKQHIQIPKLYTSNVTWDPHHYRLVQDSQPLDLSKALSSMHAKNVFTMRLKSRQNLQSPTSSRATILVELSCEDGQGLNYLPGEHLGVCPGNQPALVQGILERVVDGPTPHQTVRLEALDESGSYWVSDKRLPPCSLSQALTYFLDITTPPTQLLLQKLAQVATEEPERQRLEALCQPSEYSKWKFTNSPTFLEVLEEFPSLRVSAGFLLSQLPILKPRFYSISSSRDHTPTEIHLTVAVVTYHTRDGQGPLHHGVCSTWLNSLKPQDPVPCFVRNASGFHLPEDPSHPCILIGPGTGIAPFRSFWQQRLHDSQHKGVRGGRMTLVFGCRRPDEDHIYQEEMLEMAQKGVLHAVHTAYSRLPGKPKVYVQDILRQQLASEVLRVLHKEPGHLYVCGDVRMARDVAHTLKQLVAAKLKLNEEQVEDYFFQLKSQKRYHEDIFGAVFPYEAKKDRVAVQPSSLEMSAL
T6 sequence (O94760 whole entry): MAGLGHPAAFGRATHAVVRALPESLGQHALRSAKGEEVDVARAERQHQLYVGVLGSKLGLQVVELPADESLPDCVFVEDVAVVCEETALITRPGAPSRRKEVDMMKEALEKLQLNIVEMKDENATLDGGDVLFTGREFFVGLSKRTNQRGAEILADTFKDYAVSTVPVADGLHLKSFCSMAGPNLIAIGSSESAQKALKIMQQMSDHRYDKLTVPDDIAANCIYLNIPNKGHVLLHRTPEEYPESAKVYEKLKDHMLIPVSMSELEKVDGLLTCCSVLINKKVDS
Nitric oxide synthase 1 (Rattus norvegicus, UniProt P29476), sequence (P29476 whole entry): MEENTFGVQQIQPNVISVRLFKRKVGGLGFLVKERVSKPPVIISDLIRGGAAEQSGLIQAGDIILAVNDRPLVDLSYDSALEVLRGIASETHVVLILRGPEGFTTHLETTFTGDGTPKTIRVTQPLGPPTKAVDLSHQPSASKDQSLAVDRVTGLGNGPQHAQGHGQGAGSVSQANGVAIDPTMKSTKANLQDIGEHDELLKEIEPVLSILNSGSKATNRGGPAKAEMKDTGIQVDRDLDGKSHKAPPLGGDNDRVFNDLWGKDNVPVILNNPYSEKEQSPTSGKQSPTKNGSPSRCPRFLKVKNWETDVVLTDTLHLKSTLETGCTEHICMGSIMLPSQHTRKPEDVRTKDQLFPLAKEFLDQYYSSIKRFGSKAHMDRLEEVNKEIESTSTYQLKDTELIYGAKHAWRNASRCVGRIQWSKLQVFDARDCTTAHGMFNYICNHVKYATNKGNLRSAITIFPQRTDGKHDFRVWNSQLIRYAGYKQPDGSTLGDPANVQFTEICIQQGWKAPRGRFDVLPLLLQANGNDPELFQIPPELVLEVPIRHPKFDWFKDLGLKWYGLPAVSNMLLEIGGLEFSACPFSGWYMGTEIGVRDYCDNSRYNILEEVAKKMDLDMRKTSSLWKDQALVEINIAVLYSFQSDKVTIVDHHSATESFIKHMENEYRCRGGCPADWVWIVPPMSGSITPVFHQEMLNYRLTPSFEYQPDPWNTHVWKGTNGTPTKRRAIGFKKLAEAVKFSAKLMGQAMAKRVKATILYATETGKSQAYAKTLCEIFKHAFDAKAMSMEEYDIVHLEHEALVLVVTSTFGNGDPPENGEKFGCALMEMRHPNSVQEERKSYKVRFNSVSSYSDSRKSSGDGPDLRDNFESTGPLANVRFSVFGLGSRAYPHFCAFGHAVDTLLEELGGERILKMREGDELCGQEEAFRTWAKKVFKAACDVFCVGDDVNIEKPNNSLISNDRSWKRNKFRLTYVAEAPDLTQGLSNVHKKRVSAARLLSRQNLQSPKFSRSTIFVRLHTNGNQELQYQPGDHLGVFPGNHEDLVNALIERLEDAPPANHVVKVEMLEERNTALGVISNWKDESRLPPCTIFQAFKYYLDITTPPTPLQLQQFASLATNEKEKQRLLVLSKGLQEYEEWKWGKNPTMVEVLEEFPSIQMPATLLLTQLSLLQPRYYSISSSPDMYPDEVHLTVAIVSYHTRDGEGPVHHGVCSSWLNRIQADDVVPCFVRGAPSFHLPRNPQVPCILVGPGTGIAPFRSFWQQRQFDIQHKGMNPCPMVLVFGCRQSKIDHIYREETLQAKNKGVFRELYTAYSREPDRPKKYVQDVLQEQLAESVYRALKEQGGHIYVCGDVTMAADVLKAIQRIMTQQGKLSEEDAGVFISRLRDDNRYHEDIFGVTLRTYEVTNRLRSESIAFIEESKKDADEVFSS

Compound: CC(C)SC(=N)N
- Ki (Nitric oxide synthase 1 [1]): 30 µM
- Ki (Nitric oxide synthase 3 [2]): 0.022 µM
- Ki [3]: 0.009 µM

Compound: N=C(NN)NO
- IC50 [4]: 17 µM
- IC50 (Nitric oxide synthase 3 [5]): 23 µM
- IC50 [6]: 23 µM

Compound: N=C(NCCC[C@H](N)C(=O)O)N[N+](=O)[O-] [NITROARGININE]
- Ki [7]: 4.4 µM

Compound: COCCNC(=N)NCCC[C@H](N)c1nnn[nH]1
- Ki [8]: 14 µM
- IC50 [9]: 34 µM

Compound: N=C(N)SCCc1cccc(CCSC(=N)N)c1
- Ki (Nitric oxide synthase 1 [1]): 0.037 µM
- Ki (Nitric oxide synthase 3 [2]): 9 µM
- Ki [3]: 0.047 µM

Compound: CCCSC(=N)N
- Ki (Nitric oxide synthase 1 [1]): 0.029 µM
- Ki (Nitric oxide synthase 3 [2]): 0.67 µM
- Ki [3]: 0.24 µM

Compound: CC(=N)NCCCC[C@H](N)C(O)CO (stereo partly specified)
- IC50 (Nitric oxide synthase 1 [10]): 150 µM
- IC50 [11]: 12 µM
- Ratio IC50 (Homo sapiens): > 700
- IC50 (Nitric oxide synthase 3 [12]): 8420 µM

Compound: COCCNC(=N)NCCC[C@H](N)C(=O)NOC
- IC50 [9]: 230 µM

Compound: CN(C)C(=N)NCCC[C@H](N)C(=O)O
- Ki (Nitric oxide synthase 1 [13]): 0.67 µM

Compound: N=C(NO)NCC[C@H](N)C(=O)O [NOR-NOHA]
- IC50 (Arginase-1 [14]): 50 µM
- Ki (Arginase-1 [15]): 0.5 µM

Compound: CCSC(=N)N [ETHYLISOTHIOUREA]
- Ki (Nitric oxide synthase 3 [2]): 0.039 µM
- Ki [3]: 0.19 µM

Compound: COCCNC(=N)NCCC[C@H](N)C(=O)NS(C)(=O)=O
- IC50 [9]: 3 µM
